According to patent EP1143968B9 (priority 1999, dated 2000):
Like-named read-outs stand apart in the source and are kept apart here.

How the values were obtained:
melanoma/SK-MEL-2 = assay: cells; assay type: cell-based
Method: (§1) In studies performed in support of the invention, the in vitro cytotoxicity of 7-hexanoyl taxol was compared to paclitaxel. As described in Example 1, LC50 values, which signify the concentration of drug at which 50% of the cells are killed, were determined in five cell lines.
(§2) A suspension of each cell line which was diluted according to the particular cell type and the expected target cell density (5,000-40,000 cells per well based on cell growth characteristics) was added by pipet (100 µL) into a 96-well microtiter plate. The cells were allowed a pre-incubation period of 24 hours at 37°C for stabilization. At the end of the pre-incubation period (T0), dilutions of 7-hexanoyl taxol or paclitaxel were added in 100 µL aliquots to the microtiter plate wells. The cells were incubated in the presence of the drug for 48 hours under a 5% CO2 atmosphere at 100% humidity. The cells were assayed using the sulforhodamine B assay. A plate reader was used to read the optical densities.
(§3) The LC50 values were taken as the concentration of compound where 100 x (T-T0)/T0 = -50.

melanoma/M14 = assay: cells; assay type: cell-based
Method: as §1, §2, §3

[1] = system: non-small cell lung cancer/NCI H226; assay: cells; assay type: cell-based
Method: as §1, §2, §3

colon cancer/HT 29 = assay: cells; assay type: cell-based
Method: as §1, §2, §3

ovarian cancer/OVCAR-5 = assay: cells; assay type: cell-based
Method: as §1, §2, §3

[2] = Relative water solubility by reverse phase HPLC; settings: for retention time: reverse phase column, silica with diphenylmethyl functionalities, mobile phase acetonitrile/water, longer retention = less water soluble
Method: The water solubility of 7-hexanoyl taxol relative to paclitaxel was determined via HPLC analysis using a reverse phase column and illustrations of the HPLC traces are shown in Fig. 2. The column employed was made of silica with the hydrophilic Si-OH functionalities converted to hydrophobic diphenylmethyl functionalities. The mobile phase was acetonitrile/water. In this column, a hydrophilic or water soluble test material is retained primarily in the aqueous mobile phase, resulting in the water soluble compounds eluting from the column earlier than hydrophobic or water insoluble compounds.

[3] = system: coronary arteries of pigs; assay: In vivo testing of drug-loaded polymer stents in pig coronary arteries; settings: for % Intimal Growth / % Diameter Stenosis: metal support/polymer segments stent, 1500 µg drug; for % Intimal Growth / % Diameter Stenosis / reduction in percent stenosis compared to the stent containing paclitaxel: 28 days; for % Diameter Stenosis: morphometric analysis; for reduction in percent stenosis compared to the stent containing paclitaxel: pigs
Method: In studies performed in support of the invention, polymeric materials containing 7-hexanoyl taxol were prepared from an acrylate/methyacrylate monomer mixture and polymerized using a methacrylate crosslinker, as described in Example 2. 7-hexanoyl taxol was incorporated into the polymer by contacting the polymer with a concentrated solution of the 7-hexanoyl taxol in a suitable organic solvent. Such polymeric materials, and polymeric materials similarly formed but with paclitaxel rather than 7-hexanoyl taxol, were used in combination with a support stent, as illustrated in Fig. 3C. The test and control stents were placed in the coronary arteries of pigs, as described in Example 3, and were left in vivo for 28 days. A metal stent not carrying a polymeric material was also placed into an-artery. At the time of insertion of the test and control stents, the coronary artery was characterized using a computer-based coronary angiography analysis system (Umans, V.A., et al., JACC 21(6):1382-1390, (1993)). Boundaries of a selected coronary artery segment were detected automatically from optically magnified and video-digitized regions of interest. The catheter used for insertion of the stents was used as a scaling device to determine the dimensions of the artery at the site of implantation. The original vessel diameter at the time of implantation was determined.
After the 28 day test period, the arteries were then explanted from the pig and pressure fixed for morphometric analysis. […] The percent stenosis was taken as one minus the stented vessel's minimum lumen diameter divided by the diameter of an unstented reference vessel time one-hundred. The percent intimal growth was also determined from the following equation: 1-[(stented vessel's minimum lumenal diameter)/(diameter of stented portion prior to stent placement)]*100. The balloon to artery ratio was also determined as a measure of the degree of distension of the vessel by the balloon.
In another study in support of the invention, stents were prepared as described in Examples 2 and 3. The polymeric materials carried either 7-hexanoyl taxol, paclitaxel or 7-xylosyltaxol. […] The stents were placed in coronary arteries of pigs, according to the procedure described above. After the test period, the percent diameter stenosis and neointimal thickness of the arteries were determined. The percentage of diameter stenosis was determined by two procedures, via quantative coronary angiography (QCA) and via morphometric evaluation of the vessels. The later procedure is described in Example 3. The former procedure, QCA, was performed according to the procedure of Umans, et al. described above, with lumen dimensions determined prior to explanting the vessels for morphometric analysis.
A polymer sleeve, prepared as described in Example 2, was placed about a metal, corrugated stent. The polymer sleeve contained 1500 µg of 7-hexanoyl taxol.
The two-drug loaded stents and two control metal stents with no polymer sleeve were placed into the coronary arteries of healthy Domestic Farm Swine pigs (Pork Power, Inc.) by conventional techniques using a commercially available catheter (Advanced Cardiovascular Systems). The stents were imaged during and after the insertion procedure to ensure proper placement using conventional angiographic imaging techniques. The metal control stents were placed in two different pigs, in one pig the stent was positioned in the left anterior descending artery and in the other pig in the right coronary artery. The comparative control stent containing paclitaxel was placed in one animal in the right coronary artery. The test stents containing 7-hexanoyl taxol were placed in two pigs, one stent in the right coronary artery and the other stent in the other pig in the left circumflex artery.

[4] = Table 3 study, stents in coronary arteries of pigs

## CCCCCC(=O)OC1CC2OCC2(OC(C)=O)C2C(OC(=O)c3ccccc3)C3(O)CC(OC(=O)C(O)C(NC(=O)c4ccccc4)c4ccccc4)C(C)=C(C(OC(C)=O)C(=O)C12C)C3(C)C (stereo not drawn) [7-hexanoyl taxol]
melanoma/SK-MEL-2; melanoma/SK-MEL-2, 48 hours with drug, read-out: LC50 (the source's name)
  CC50: > 100 µM
melanoma/M14; melanoma/M14, 48 hours with drug, read-out: LC50 (the source's name)
  CC50: 1.1 µM
[1]; non-small cell lung cancer/NCI H226, 48 hours with drug, read-out: LC50 (the source's name)
  CC50: > 100 µM
Colon cancer/HT 29; colon cancer/HT 29, 48 hours with drug, concentration at which 50% of the cells are killed, read-out: LC50 (the source's name)
  CC50: 30 µM
Ovarian cancer/OVCAR-5; ovarian cancer/OVCAR-5, 48 hours with drug, read-out: LC50 (the source's name)
  CC50: 50 µM
[2]; from the hydrophobic shift of HPLC retention time
  water solubility relative to paclitaxel: less water soluble than paclitaxel
[2]
  retention time: 30.9 min
[3]; [4]
  intimal thickening compared to paclitaxel: less
  percent stenosis compared to paclitaxel: lower
[3]; Table 3 study, stents in coronary arteries of pigs, QCA and morphometric evaluation
  percent diameter stenosis compared to the water-soluble derivative, 7-xylosyltaxol: considerably lower
[3]; left circumflex artery
  % Intimal Growth: 2.3%
  % Diameter Stenosis: 16%
[3]; one case (of the two stents with 7-hexanoyl taxol)
  reduction in percent stenosis compared to the stent containing paclitaxel: two-fold
[3]; right coronary artery
  % Intimal Growth: -7.1%
  % Diameter Stenosis: 4%
[3]; the other case (of the two stents with 7-hexanoyl taxol)
  reduction in percent stenosis compared to the stent containing paclitaxel: ~8 fold

## CC(=O)O[C@H]1C(=O)[C@@]2(C)[C@H]([C@H](OC(=O)c3ccccc3)[C@]3(O)C[C@H](OC(=O)[C@H](O)[C@@H](NC(=O)c4ccccc4)c4ccccc4)C(C)=C1C3(C)C)[C@]1(OC(C)=O)CO[C@@H]1C[C@@H]2O [Paclitaxel, reference compound]
melanoma/SK-MEL-2; Homo sapiens, SK-MEL-2, 48 h, read-out: LC50
  CC50: 100 µM
melanoma/M14; 48 h, read-out: LC50
  CC50: 100 µM
[1]; Homo sapiens, NCI-H226, 48 h, read-out: LC50
  CC50: 70 µM
Colon cancer/HT 29; Homo sapiens, HT-29, 48 h, read-out: LC50
  CC50: 30 µM
Ovarian cancer/OVCAR-5; Homo sapiens, OVCAR-5, 48 h, read-out: LC50
  CC50: > 100 µM
[2]
  retention time: 18.5 min
[3]; right coronary artery
  % Intimal Growth: 29.5%
  % Diameter Stenosis: 34%
